Assay results taken from the NIST ThermoML archive (doi:10.1016/j.fluid.2016.11.012).
Values joined by “and” are separate entries in the source; they are usually repeats but may differ in a detail not shown here. Equal values may be shown once. ± gives the expanded uncertainty stated by the source.

How the values were obtained:
[1] = molar heat capacity at constant pressure; conditions: 100 kPa, DSC
[2] = Molar enthalpy of transition or fusion; conditions: Crystal; DSC
[3] = Crystal; for vapor or sublimation pressure: Closed cell (Static) method

c1ccc2c(c1)Cc1ccccc1-2 [fluorene]
molar heat capacity at constant pressure ([1]; 262.36 K, Crystal): 171.44 ± 6.7 J/K/mol
molar heat capacity at constant pressure ([1]; 262.44 K, Crystal): 171.61 ± 6.7 J/K/mol
molar heat capacity at constant pressure ([1]; 262.47 K, Crystal): 171.61 ± 6.7 J/K/mol
molar heat capacity at constant pressure ([1]; 265 K, Crystal): 173.52 ± 6.7 J/K/mol and 173.36 ± 6.7 J/K/mol
molar heat capacity at constant pressure ([1]; 270 K, Crystal): 176.77 ± 6.8 J/K/mol and 176.68 ± 6.8 J/K/mol
molar heat capacity at constant pressure ([1]; 275 K, Crystal): 180.01 ± 7 J/K/mol and 179.93 ± 7 J/K/mol and 180.09 ± 7 J/K/mol
molar heat capacity at constant pressure ([1]; 280 K, Crystal): 183.33 ± 7.1 J/K/mol and 183.25 ± 7.1 J/K/mol
molar heat capacity at constant pressure ([1]; 285 K, Crystal): 186.49 ± 7.2 J/K/mol and 186.41 ± 7.2 J/K/mol and 186.33 ± 7.2 J/K/mol
molar heat capacity at constant pressure ([1]; 290 K, Crystal): 189.65 ± 7.3 J/K/mol and 189.49 ± 7.3 J/K/mol and 189.4 ± 7.3 J/K/mol
molar heat capacity at constant pressure ([1]; 295 K, Crystal): 192.9 ± 7.5 J/K/mol and 192.81 ± 7.5 J/K/mol and 192.73 ± 7.5 J/K/mol
molar heat capacity at constant pressure ([1]; 300 K, Crystal): 196.47 ± 7.6 J/K/mol and 196.31 ± 7.6 J/K/mol
molar heat capacity at constant pressure ([1]; 305 K, Crystal): 201.38 ± 7.8 J/K/mol and 201.21 ± 7.8 J/K/mol
molar heat capacity at constant pressure ([1]; 310 K, Crystal): 208.11 ± 8.1 J/K/mol and 208.2 ± 8.1 J/K/mol and 207.95 ± 8.1 J/K/mol
molar heat capacity at constant pressure ([1]; 315 K, Crystal): 216.18 ± 8.4 J/K/mol and 216.34 ± 8.4 J/K/mol and 216.09 ± 8.4 J/K/mol
molar heat capacity at constant pressure ([1]; 320 K, Crystal): 223.33 ± 8.6 J/K/mol and 223.66 ± 8.6 J/K/mol and 223.41 ± 8.6 J/K/mol
molar heat capacity at constant pressure ([1]; 325 K, Crystal): 227.9 ± 8.8 J/K/mol and 228.32 ± 8.8 J/K/mol
molar heat capacity at constant pressure ([1]; 330 K, Crystal): 231.81 ± 9 J/K/mol and 232.39 ± 9 J/K/mol and 232.31 ± 9 J/K/mol
molar heat capacity at constant pressure ([1]; 335 K, Crystal): 236.96 ± 9.1 J/K/mol and 237.3 ± 9.2 J/K/mol and 237.21 ± 9.2 J/K/mol
molar heat capacity at constant pressure ([1]; 340 K, Crystal): 242.04 ± 9.4 J/K/mol and 241.87 ± 9.4 J/K/mol
molar heat capacity at constant pressure ([1]; 345 K, Crystal): 246.77 ± 9.6 J/K/mol and 246.61 ± 9.6 J/K/mol
molar heat capacity at constant pressure ([1]; 350 K, Crystal): 251.85 ± 9.7 J/K/mol and 251.76 ± 9.7 J/K/mol and 251.68 ± 9.7 J/K/mol
molar heat capacity at constant pressure ([1]; 355 K, Crystal): 257.25 ± 10 J/K/mol and 257.17 ± 10 J/K/mol and 257.08 ± 10 J/K/mol
molar heat capacity at constant pressure ([1]; 358.37 K, Crystal): 261.08 ± 10 J/K/mol
molar heat capacity at constant pressure ([1]; 358.5 K, Crystal): 261.32 ± 10 J/K/mol and 261.24 ± 10 J/K/mol

C1=Cc2cccc3cccc1c23 [acenaphthylene]
Molar enthalpy of transition or fusion [2]: 11.7 ± 0.66 kJ/mol
vapor or sublimation pressure ([3]; 296.95 K): 0.00087 ± 0.00011 kPa
vapor or sublimation pressure ([3]; 296.97 K): 0.00086 ± 0.00011 kPa
vapor or sublimation pressure ([3]; 296.98 K): 0.00088 ± 0.00011 kPa
vapor or sublimation pressure ([3]; 302.22 K): 0.00147 ± 0.00012 kPa
vapor or sublimation pressure ([3]; 302.23 K): 0.00148 ± 0.00012 kPa and 0.00147 ± 0.00012 kPa
vapor or sublimation pressure ([3]; 307.47 K): 0.00244 ± 0.00014 kPa
vapor or sublimation pressure ([3]; 307.48 K): 0.00247 ± 0.00014 kPa
vapor or sublimation pressure ([3]; 307.49 K): 0.00243 ± 0.00014 kPa
vapor or sublimation pressure ([3]; 312.71 K): 0.00399 ± 0.00019 kPa
vapor or sublimation pressure ([3]; 312.72 K): 0.00399 ± 0.00019 kPa and 0.00397 ± 0.00019 kPa
vapor or sublimation pressure ([3]; 317.89 K): 0.00629 ± 0.00027 kPa and 0.00628 ± 0.00027 kPa and 0.00632 ± 0.00027 kPa
vapor or sublimation pressure ([3]; 323.06 K): 0.00986 ± 0.0004 kPa
vapor or sublimation pressure ([3]; 323.07 K): 0.00984 ± 0.0004 kPa and 0.00986 ± 0.0004 kPa
vapor or sublimation pressure ([3]; 328.2 K): 0.01511 ± 0.00055 kPa
vapor or sublimation pressure ([3]; 328.21 K): 0.01516 ± 0.00055 kPa
vapor or sublimation pressure ([3]; 328.22 K): 0.01513 ± 0.00055 kPa
vapor or sublimation pressure ([3]; 333.33 K): 0.02281 ± 0.00067 kPa
vapor or sublimation pressure ([3]; 333.34 K): 0.02286 ± 0.00067 kPa and 0.02282 ± 0.00067 kPa
vapor or sublimation pressure ([3]; 338.45 K): 0.03393 ± 0.00084 kPa and 0.03392 ± 0.00084 kPa
vapor or sublimation pressure ([3]; 343.49 K): 0.04954 ± 0.0011 kPa
vapor or sublimation pressure ([3]; 343.5 K): 0.04955 ± 0.0011 kPa and 0.0496 ± 0.0011 kPa
vapor or sublimation pressure ([3]; 348.54 K): 0.07154 ± 0.0014 kPa and 0.07156 ± 0.0014 kPa
vapor or sublimation pressure ([3]; 353.54 K): 0.1018 ± 0.0019 kPa
vapor or sublimation pressure ([3]; 353.55 K): 0.1017 ± 0.0019 kPa and 0.1018 ± 0.0019 kPa
vapor or sublimation pressure ([3]; 358.56 K): 0.1434 ± 0.0021 kPa and 0.1435 ± 0.0021 kPa
vapor or sublimation pressure ([3]; 361.06 K): 0.1694 ± 0.0023 kPa
vapor or sublimation pressure ([3]; 361.07 K): 0.1693 ± 0.0023 kPa and 0.1695 ± 0.0023 kPa
vapor or sublimation pressure ([3]; 363.54 K): 0.1995 ± 0.0026 kPa
vapor or sublimation pressure ([3]; 363.55 K): 0.1996 ± 0.0026 kPa and 0.1994 ± 0.0026 kPa
Normal melting temperature ([3]; DTA): 92.00 ± 0.7 °C
molar heat capacity at constant pressure ([1]; 304.12 K, Crystal): 185.5 ± 8.6 J/K/mol and 185.08 ± 8.6 J/K/mol and 185.83 ± 8.6 J/K/mol
molar heat capacity at constant pressure ([1]; 306.11 K, Crystal): 186.74 ± 8.6 J/K/mol and 186.41 ± 8.6 J/K/mol and 186.24 ± 8.6 J/K/mol
molar heat capacity at constant pressure ([1]; 308.11 K, Crystal): 188.24 ± 8.7 J/K/mol and 187.99 ± 8.7 J/K/mol and 188.07 ± 8.7 J/K/mol
molar heat capacity at constant pressure ([1]; 310.11 K, Crystal): 188.57 ± 8.7 J/K/mol and 188.99 ± 8.7 J/K/mol and 188.74 ± 8.7 J/K/mol
molar heat capacity at constant pressure ([1]; 312.11 K, Crystal): 189.4 ± 8.8 J/K/mol and 189.49 ± 8.8 J/K/mol
molar heat capacity at constant pressure ([1]; 314.11 K, Crystal): 190.82 ± 8.8 J/K/mol and 190.32 ± 8.8 J/K/mol
molar heat capacity at constant pressure ([1]; 316.11 K, Crystal): 191.23 ± 8.9 J/K/mol and 191.73 ± 8.9 J/K/mol and 192.23 ± 8.9 J/K/mol
molar heat capacity at constant pressure ([1]; 318.11 K, Crystal): 192.31 ± 8.9 J/K/mol and 192.65 ± 8.9 J/K/mol and 192.15 ± 8.9 J/K/mol
molar heat capacity at constant pressure ([1]; 320.11 K, Crystal): 193.81 ± 9 J/K/mol and 193.73 ± 9 J/K/mol and 193.56 ± 9 J/K/mol
molar heat capacity at constant pressure ([1]; 322.11 K, Crystal): 195.06 ± 9.1 J/K/mol and 195.47 ± 9.1 J/K/mol
molar heat capacity at constant pressure ([1]; 324.11 K, Crystal): 196.55 ± 9.1 J/K/mol and 196.06 ± 9.1 J/K/mol and 196.14 ± 9.1 J/K/mol
molar heat capacity at constant pressure ([1]; 326.11 K, Crystal): 196.97 ± 9.1 J/K/mol and 197.8 ± 9.1 J/K/mol and 196.8 ± 9.1 J/K/mol
molar heat capacity at constant pressure ([1]; 328.12 K, Crystal): 198.13 ± 9.2 J/K/mol and 198.22 ± 9.2 J/K/mol and 198.55 ± 9.2 J/K/mol
molar heat capacity at constant pressure ([1]; 330.12 K, Crystal): 200.13 ± 9.3 J/K/mol and 198.88 ± 9.2 J/K/mol and 199.8 ± 9.2 J/K/mol
molar heat capacity at constant pressure ([1]; 332.13 K, Crystal): 201.21 ± 9.3 J/K/mol and 200.88 ± 9.3 J/K/mol and 201.38 ± 9.3 J/K/mol
molar heat capacity at constant pressure ([1]; 369.13 K, Liquid): 247.86 ± 11 J/K/mol and 248.77 ± 12 J/K/mol and 247.19 ± 11 J/K/mol
molar heat capacity at constant pressure ([1]; 371.13 K, Liquid): 249.1 ± 12 J/K/mol and 248.1 ± 11 J/K/mol
molar heat capacity at constant pressure ([1]; 373.13 K, Liquid): 251.1 ± 12 J/K/mol and 250.68 ± 12 J/K/mol and 249.52 ± 12 J/K/mol
molar heat capacity at constant pressure ([1]; 375.13 K, Liquid): 250.68 ± 12 J/K/mol and 249.02 ± 12 J/K/mol and 253.51 ± 12 J/K/mol
molar heat capacity at constant pressure ([1]; 377.13 K, Liquid): 254.17 ± 12 J/K/mol and 251.51 ± 12 J/K/mol and 250.68 ± 12 J/K/mol
molar heat capacity at constant pressure ([1]; 379.13 K, Liquid): 253.59 ± 12 J/K/mol and 250.93 ± 12 J/K/mol and 251.35 ± 12 J/K/mol
molar heat capacity at constant pressure ([1]; 381.13 K, Liquid): 253.92 ± 12 J/K/mol and 251.01 ± 12 J/K/mol and 252.18 ± 12 J/K/mol
molar heat capacity at constant pressure ([1]; 383.13 K, Liquid): 254.76 ± 12 J/K/mol and 252.59 ± 12 J/K/mol and 252.51 ± 12 J/K/mol
molar heat capacity at constant pressure ([1]; 385.13 K, Liquid): 255.92 ± 12 J/K/mol and 253.59 ± 12 J/K/mol and 253.01 ± 12 J/K/mol
molar heat capacity at constant pressure ([1]; 387.13 K, Liquid): 255.01 ± 12 J/K/mol and 253.51 ± 12 J/K/mol and 252.93 ± 12 J/K/mol
